Results reported in patent US20100016401A1, “3-AZA-BICYCLO[3.1.0]HEXANE DERIVATIVES” (Actelion Phamaceuticals Ltd., priority 2006, published 2010).

Legend:
[1] = molecular target: T1, human orexin-1 receptor (Homo sapiens, UniProt O43613); assay: Intracellular calcium measurements (FLIPR), orexin receptor antagonistic activity, OX1; type: cell-based; conditions: CHO cells expressing human orexin-1 receptor, 10 nM orexin-A as agonist
T1 construct: expressed in transfected cells; host or cells: CHO (Chinese hamster ovary) cells, grown under G418 selection
T1 sequence (O43613 1-425): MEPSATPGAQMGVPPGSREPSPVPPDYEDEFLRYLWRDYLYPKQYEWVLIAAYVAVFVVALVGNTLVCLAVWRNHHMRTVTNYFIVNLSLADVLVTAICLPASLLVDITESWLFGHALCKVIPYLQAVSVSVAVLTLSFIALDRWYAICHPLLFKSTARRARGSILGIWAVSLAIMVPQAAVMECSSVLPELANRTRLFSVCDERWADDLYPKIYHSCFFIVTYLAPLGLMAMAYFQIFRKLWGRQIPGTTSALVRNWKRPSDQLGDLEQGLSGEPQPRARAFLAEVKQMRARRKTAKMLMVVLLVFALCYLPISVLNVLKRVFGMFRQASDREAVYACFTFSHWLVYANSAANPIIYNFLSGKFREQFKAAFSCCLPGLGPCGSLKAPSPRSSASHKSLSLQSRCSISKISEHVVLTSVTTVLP
Experimental: (§1) The orexin receptor antagonistic activity of the compounds of formula (I) is determined in accordance with the following experimental method.
(§2) Intracellular Calcium Measurements:
(§3) Chinese hamster ovary (CHO) cells expressing the human orexin-1 receptor and the human orexin-2 receptor, respectively, are grown in culture medium (Ham F-12 with L-Glutamine) containing 300 μg/ml G418, 100 U/ml penicillin, 100 μg/ml streptomycin and 10% inactivated fetal calf serum (FCS). The cells are seeded at 80,000 cells/well into 96-well black clear bottom sterile plates (Costar) which have been precoated with 1% gelatine in Hanks' Balanced Salt Solution (HBSS). All reagents are from Gibco BRL. The seeded plates are incubated overnight at 37° C. in 5% CO2.
(§4) Human orexin-A as an agonist is prepared as 1 mM stock solution in MeOH: water (1:1), diluted in HBSS containing 0.1% bovine serum albumin (BSA) and 2 mM HEPES for use in the assay at a final concentration of 10 nM.
(§5) Antagonists are prepared as 10 mM stock solution in DMSO, then diluted in 96-well plates, first in DMSO, then in HBSS containing 0.1% bovine serum albumin (BSA) and 2 mM HEPES.
(§6) On the day of the assay, 100 μl of loading medium (HBSS containing 1% FCS, 2 mM HEPES, 5 mM probenecid (Sigma) and 3 μM of the fluorescent calcium indicator fluo-3 AM (1 mM stock solution in DMSO with 10% pluronic acid) (Molecular Probes) is added to each well.
(§7) The 96-well plates are incubated for 60 min at 37° C. in 5% CO2. The loading solution is then aspirated and cells are washed 3 times with 200 μl HBSS containing 2.5 mM probenecid, 0.1% BSA, 2 mM HEPES. 100 μl of that same buffer is left in each well.
(§8) Within the Fluorescent Imaging Plate Reader (FLIPR, Molecular Devices), antagonists are added to the plate in a volume of 50 μl, incubated for 20 min and finally 100 μl of agonist is added. Fluorescence is measured for each well at 1 second intervals, and the height of each fluorescence peak is compared to the height of the fluorescence peak induced by 10 nM orexin-A with buffer in place of antagonist.

[2] = molecular target: T2, human orexin-2 receptor (Homo sapiens, UniProt O43614); assay: Intracellular calcium measurements (FLIPR), orexin receptor antagonistic activity, OX2; type: cell-based; conditions: CHO cells expressing human orexin-2 receptor, 10 nM orexin-A as agonist
T2 construct: expressed in transfected cells; host or cells: CHO (Chinese hamster ovary) cells, grown under G418 selection
T2 sequence (O43614 1-444): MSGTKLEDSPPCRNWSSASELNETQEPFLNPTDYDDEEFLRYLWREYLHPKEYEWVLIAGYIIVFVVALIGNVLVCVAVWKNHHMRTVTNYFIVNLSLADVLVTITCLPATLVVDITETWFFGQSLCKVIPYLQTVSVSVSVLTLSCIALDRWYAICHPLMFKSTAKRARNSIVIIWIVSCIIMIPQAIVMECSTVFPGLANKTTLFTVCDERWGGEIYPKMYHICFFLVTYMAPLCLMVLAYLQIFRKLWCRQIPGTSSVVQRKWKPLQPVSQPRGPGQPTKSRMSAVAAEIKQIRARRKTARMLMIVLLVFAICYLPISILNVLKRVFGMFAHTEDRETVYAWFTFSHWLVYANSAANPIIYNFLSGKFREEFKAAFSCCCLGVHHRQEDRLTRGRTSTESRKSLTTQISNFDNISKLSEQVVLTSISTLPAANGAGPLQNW
Experimental: as §1, §2, §3, §4, §5, §6, §7, §8

IC50 [1]	IC50 [2]	Compound
162 nM	242 nM	O=C(c1ccccc1-c1ccccc1)N1C[C@H]2C[C@H]2[C@H]1CNc1ncc(Br)cn1 (relative stereo) [Example 64, biphenyl-2-yl-{(1R*,2S*,5S*)-2-[(5-bromo-pyrimidin-2-ylamino)methyl]-3-aza-bicyclo[3.1.0]hex-3-yl}-methanone]
864 nM	50 nM	Cc1cccc(-c2sc(C)nc2C(=O)N2C[C@H]3C[C@H]3[C@H]2CNC(=O)c2sc(C)nc2C)c1 (relative stereo) [Example 82, 2,4-dimethyl-thiazole-5-carboxylic acid [(1R*,2S*,5S*)-3-(2-methyl-5-m-tolyl-thiazole-4-carbonyl)-3-aza-bicyclo[3.1.0]hex-2-ylmethyl]-amide]
31 nM	87 nM	Cc1cccc(-c2sc(N)nc2C(=O)N2C[C@H]3C[C@H]3[C@H]2CNC(=O)c2sc3nccn3c2C)c1 (relative stereo) [Example 274, 3-Methyl-imidazo[2,1-b]thiazole-2-carboxylic acid [(1R*,2S*,5S*)-3-(2-amino-5-m-tolyl-thiazole-4-carbonyl)-3-aza-bicyclo[3.1.0]hex-2-ylmethyl]-amide]
23 nM	85 nM	Cc1cccc(-c2sc(C#CCO)nc2C(=O)N2C[C@H]3C[C@H]3[C@H]2CNC(=O)c2c(C)nc3sccn23)c1 (relative stereo) [Example 387, 6-Methyl-imidazo[2,1-b]thiazole-5-carboxylic acid {(1R*,2S*,5S*)-3-[2-(3-hydroxy-prop-1-ynyl)-5-m-tolyl-thiazole-4-carbonyl]-3-aza-bicyclo[3.1.0]hex-2-ylmethyl}-amide]
201 nM	237 nM	Cc1cccc(-c2sc(C)nc2C(=O)N2C[C@H]3C[C@H]3[C@H]2CNC(=O)c2ccccc2N2CCOCC2)c1 (relative stereo) [Example 154, N-[(1R*,2S*,5S*)-3-(2-Methyl-5-m-tolyl-thiazole-4-carbonyl)-3-aza-bicyclo[3.1.0]hex-2-ylmethyl]-2-morpholin-4-yl-benzamide]
2170 nM	94 nM	COc1ccc(-c2ocnc2C(=O)N2C[C@H]3C[C@H]3[C@H]2CNC(=O)c2cccc3occc23)cc1 (relative stereo) [Example 33, benzofuran-4-carboxylic acid {(1R*,2S*,5S*)-3-[5-(4-methoxy-phenyl)-oxazole-4-carbonyl]-3-aza-bicyclo[3.1.0]hex-2-ylmethyl}-amide]
111 nM	14 nM	Cc1nc(C(=O)N2C[C@H]3C[C@H]3[C@H]2CNC(=O)c2cccc3c2OCCO3)c(-c2cccc(F)c2)s1 (relative stereo) [Example 256, 2,3-Dihydro-benzo[1,4]dioxine-5-carboxylic acid {(1R*,2S*,5S*)-3-[5-(3-fluoro-phenyl)-2-methyl-thiazole-4-carbonyl]-3-aza-bicyclo[3.1.0]hex-2-ylmethyl}-amide]
110 nM	194 nM	Cc1ccc(C(=O)N2C[C@H]3C[C@H]3[C@H]2CNC(=O)c2cccc3c2OCCO3)c(-c2ccc3c(c2)OCCO3)c1 [Compound 350]
19 nM	17 nM	Cc1cccc(-c2sc(CCCO)nc2C(=O)N2C[C@H]3C[C@H]3[C@H]2CNC(=O)c2c(C)nc3sccn23)c1 (relative stereo) [Example 389, 6-Methyl-imidazo[2,1-b]thiazole-5-carboxylic acid {(1R*,2S*,5S*)-3-[2-(3-hydroxy-propyl)-5-m-tolyl-thiazole4-carbonyl]-3-aza-bicyclo[3.1.0]hex-2-ylmethyl}-amide]
143 nM	33 nM	CCc1ccc(-c2sc(C)nc2C(=O)N2C[C@H]3C[C@H]3[C@H]2CNC(=O)c2cccc3occc23)cc1 (relative stereo) [Example 16, benzofuran-4-carboxylic acid {(1R*,2S*,5S*)-3-[5-(4-ethyl-phenyl}2-methyl-thiazole-4-carbonyl]-3-aza-bicyclo[3.1.0]hex-2-ylmethyl}-amide]
994 nM	96 nM	Cc1nc(C(=O)N2C[C@H]3C[C@H]3[C@H]2CNC(=O)c2ccc(F)cc2)c(-c2cccc(F)c2)s1 (relative stereo) [Example 8, 4-fluoro-N-{[(1R*,2S*,5S*)-3-[5-(3-fluoro-phenyl)-2-methyl-thiazole-4-carbonyl]-3-aza-bicyclo[3.1.0]hex-2-ylmethyl}-benzamide]
194 nM	158 nM	Cc1csc(-c2c(C)cccc2C(=O)N2C[C@H]3C[C@H]3[C@H]2CNC(=O)c2cccc3c2OCCO3)c1 [Compound 376]
1300 nM	80 nM	Cc1cccc(-c2sc(C)nc2C(=O)N2C[C@H]3C[C@H]3[C@H]2CNC(=O)c2cnc(CC(C)C)c(C)c2)c1 (relative stereo) [Example 100, 6-isobutyl-5-methyl-N-[(1R*,2S*,5S*)-3-(2-methyl-5-m-tolyl-thiazole-4-carbonyl)-3-aza-bicyclo[3.1.0]hex-2-ylmethyl]-nicotinamide]
507 nM	17 nM	Cc1cccc(-c2sc(C)nc2C(=O)N2C[C@H]3C[C@H]3[C@H]2CNC(=O)c2cccc(C)c2Cl)c1 (relative stereo) [Example 143, 2-Chloro-3-methyl-N-[(1R*,2S*,5S*)-3-(2-methyl-5-m-tolyl-thiazole-4-carbonyl)-3-aza-bicyclo[3.1.0]hex-2-ylmethyl]-benzamide]
237 nM	50 nM	O=C(NC[C@@H]1[C@@H]2C[C@@H]2CN1C(=O)c1ccccc1-c1ccc(Cl)cc1)c1cccc2occc12 (relative stereo) [Example 42, benzofuran-4-carboxylic acid [(1R*,2S*,5S*)-3-(4′-chloro-biphenyl-2-carbonyl)-3-aza-bicyclo[3.1.0]hex-2-ylmethyl]-amide]
76 nM	14 nM	Cc1cccc(-c2sc(C)nc2C(=O)N2C[C@H]3C[C@H]3[C@H]2CNC(=O)c2ccc(F)cc2Cl)c1 (relative stereo) [Example 141, 2-Chloro-4-fluoro-N-[(1R*,2S*,5S*)-3-(2-methyl-5-m-tolyl-thiazole-4-carbonyl)-3-aza-bicyclo[3.1.0]hex-2-ylmethyl]-benzamide]
131 nM	101 nM	Cc1cccc(-c2sc(C)nc2C(=O)N2C[C@H]3C[C@H]3[C@H]2CNC(=O)c2cccc3c2OC(C)(C)C3)c1 (relative stereo) [Example 108, 2,2-Dimethyl-2,3-dihydro-benzofuran-7-carboxylic acid [(1R*,2S*,5S*)-3-(2-methyl-5-m-tolyl-thiazole-4-carbonyl)-3-aza-bicyclo[3.1.0]hex-2-ylmethyl]-amide]
346 nM	40 nM	Cc1ccc(C(=O)N2C[C@H]3C[C@H]3[C@H]2CNC(=O)c2cccc3c2OCC3)c(-c2cccc(F)c2)c1 [Compound 325]
237 nM	76 nM	Cc1cccc(-c2sc(C)nc2C(=O)N2C[C@H]3C[C@H]3[C@H]2CNC(=O)c2cccc3c2OCCN3C)c1 (relative stereo) [Example 179, 4-Methyl-3,4-dihydro-2H-benzo[1,4]oxazine-8-carboxylic acid [(1R*,2S*,5S*)-3-(2-methyl-5-m-tolyl-thiazole-4-carbonyl)-3-aza-bicyclo[3.1.0]hex-2-ylmethyl]-amide]
